The record followed here is US6605742B2, “Cyclo azaphospha hydrocarbons” (priority 2001, dated 2003).

As usually defined, the IC50 is the concentration at which inhibition is half-maximal. A lower IC50 goes with greater potency.

The structures appear in SMILES notation.

Holding throughout (type): biochemical
For one experiment, the target named is T1, MMP-2 (Homo sapiens, UniProt P08253).
T1 construct: purchased Biogenesis Ltd, UK
T1 sequence (P08253 110-660): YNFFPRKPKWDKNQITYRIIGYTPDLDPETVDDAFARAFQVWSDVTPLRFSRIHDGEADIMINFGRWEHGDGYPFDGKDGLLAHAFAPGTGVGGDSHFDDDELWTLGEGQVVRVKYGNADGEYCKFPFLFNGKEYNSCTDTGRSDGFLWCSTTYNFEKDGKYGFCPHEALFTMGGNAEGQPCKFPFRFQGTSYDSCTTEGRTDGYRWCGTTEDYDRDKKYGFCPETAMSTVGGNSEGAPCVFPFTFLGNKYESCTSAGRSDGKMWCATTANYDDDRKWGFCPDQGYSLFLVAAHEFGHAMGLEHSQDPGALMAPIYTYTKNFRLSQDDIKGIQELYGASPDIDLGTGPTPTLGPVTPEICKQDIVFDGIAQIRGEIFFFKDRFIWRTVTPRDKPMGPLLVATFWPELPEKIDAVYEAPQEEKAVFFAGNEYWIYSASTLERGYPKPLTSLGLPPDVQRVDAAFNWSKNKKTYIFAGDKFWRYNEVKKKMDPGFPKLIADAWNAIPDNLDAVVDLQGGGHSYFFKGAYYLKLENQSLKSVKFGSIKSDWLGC
Briefly: Test for MMP inhibitory effects: cleavage of fluorescein-conjugated gelatin by MMP-2. How it is done: (§1) The assay measures the effect of the tested compounds on the proteolytic activity of metalloproteases by assessing the cleavage of a fluorogenic substrate. In the uncleaved substrate the fluoresensce is quenched intramolecularly, however, cleavage of the substrate relieves the quenching yielding fluorescent peptides [Bickett, Anal. Biochem, 212, 58-64, 1993; Knight, FEBS Lett., 296, 263-266, 1992].
(§2) The compounds were tested for inhibitory effects towards MMP-1 and MMP-9 (Chemicon International, CA, USA) and MMP-2 (Biogenesis Ltd, UK). Substrate for MMP-1 was M-2055 (Dnp-Pro-β-cyclohexyl-Ala-Gly-Cys(Me)-His-Ala-Lys(N-Me-Abz)-NH2), which is a synthetic peptide-like structure, obtained from Bachem AG, Schwitzerland. Substrate for MMP-2 and MMP-9 was fluorescein-conjugated gelatin obtained from Molecular Probes Inc., OR, USA.
(§3) The enzymes were activated with phenyl mercuric acetate, and incubated with the appropriate substrate and different levels of the compound to be tested. The exitation/emission wavelengths were 350/450 and 485/530 for M-2055 and gelatine, respectively.
(§4) The molar concentration of the test compounds resulting in 50% inhibition of the enzymatic activity (IC50) was calculated from the dose-response curve. For convenience, the results are reported as pIC50, i.e. −log(IC50).

In a further experiment the target is T2, MMP-9 (Homo sapiens, UniProt P14780).
T2 construct: purchased Chemicon International, CA, USA
T2 sequence (P14780 107-707 limits assumed, species assumed): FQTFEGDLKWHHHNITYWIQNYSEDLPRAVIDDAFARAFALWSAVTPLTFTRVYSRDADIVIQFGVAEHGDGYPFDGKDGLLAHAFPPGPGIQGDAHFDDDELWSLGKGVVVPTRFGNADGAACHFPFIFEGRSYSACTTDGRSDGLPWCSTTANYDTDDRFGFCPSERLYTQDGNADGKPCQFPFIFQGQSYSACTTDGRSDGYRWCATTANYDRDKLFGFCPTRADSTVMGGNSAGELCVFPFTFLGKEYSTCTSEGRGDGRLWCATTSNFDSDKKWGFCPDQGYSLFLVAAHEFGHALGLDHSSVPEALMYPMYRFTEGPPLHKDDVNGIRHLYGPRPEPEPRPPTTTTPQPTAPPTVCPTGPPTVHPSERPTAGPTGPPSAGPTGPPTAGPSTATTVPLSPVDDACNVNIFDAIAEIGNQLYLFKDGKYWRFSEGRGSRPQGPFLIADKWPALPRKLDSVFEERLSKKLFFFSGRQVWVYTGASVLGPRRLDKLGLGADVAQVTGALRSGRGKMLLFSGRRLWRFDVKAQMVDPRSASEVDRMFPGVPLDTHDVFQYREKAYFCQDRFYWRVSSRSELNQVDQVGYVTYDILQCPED
Briefly: Test for MMP inhibitory effects: cleavage of fluorescein-conjugated gelatin by MMP-9. How it is done: as §1, §2, §3, §4

Another experiment deals with T3, MMP-1 (Homo sapiens, UniProt P03956).
T3 construct: purchased Chemicon International, CA, USA
T3 sequence (P03956 100-469): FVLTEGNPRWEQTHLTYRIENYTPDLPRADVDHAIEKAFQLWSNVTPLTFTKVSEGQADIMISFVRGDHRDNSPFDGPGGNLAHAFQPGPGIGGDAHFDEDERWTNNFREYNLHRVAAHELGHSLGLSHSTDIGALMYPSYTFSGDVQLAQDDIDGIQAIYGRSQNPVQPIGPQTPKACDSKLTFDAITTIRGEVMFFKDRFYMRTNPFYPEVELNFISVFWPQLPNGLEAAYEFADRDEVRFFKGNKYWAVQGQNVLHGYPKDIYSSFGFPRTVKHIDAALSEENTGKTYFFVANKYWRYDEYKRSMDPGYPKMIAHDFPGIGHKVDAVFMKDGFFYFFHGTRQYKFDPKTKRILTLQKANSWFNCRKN
Briefly: Test for MMP inhibitory effects: cleavage of fluorogenic substrate M-2055 by MMP-1. The protocol: as §1, §2, §3, §4

The mark [1] stands for this setting: pIC50 = -log(IC50), molar, enzyme activated with phenyl mercuric acetate, substrate fluorescein-conjugated gelatin, excitation/emission 485/530.

For `O=C(CN1CC=CCP1(=O)c1ccc(Oc2ccccc2)cc1)NO` (racemic) [Example 1, (±)-N-hydroxy-2-oxo-2-(4-phenoxyphenyl)-azaphosphorin-4-ene-1-acetamide], the half-maximal inhibitory concentration (IC50) was 5.01 nM against MMP-2, 1 nM against MMP-9 and 2510 nM at MMP-1.
For the compound `O=C(CN1CC=CCCP1(=O)c1ccc(Oc2ccccc2)cc1)NO` (racemic) [Example 4, (±)-N-hydroxy-2-oxo-2-(4-phenoxyphenyl)-azaphosphorep-5-ene-1-acetamide], the figures for the IC50 against MMP-2, against MMP-9 and against MMP-1 were 7.94 nM, 6.31 nM and 7940 nM, respectively.
Regarding `O=C(CN1CCCCCP1(=O)c1ccc(Oc2ccccc2)cc1)NO` (racemic) [Example 5, (±)-N-hydroxy-2-oxo-2-(4-phenoxyphenyl)-azaphosphorepane-1-acetamide], the “pIC50 MMP-2” value against MMP-2 (setting [1]) stood at 8.3. The “pIC50 MMP-9” value against MMP-9 (setting [1]) is listed as 8.5. At MMP-1 (pIC50 = -log(IC50), molar, enzyme activated with phenyl mercuric acetate, substrate M-2055, excitation/emission 350/450), the “pIC50 MMP-1” value came out at 5.2.
With `O=C(CN1CC=CCP1(=O)c1ccc(Oc2ccc(Cl)cc2)cc1)NO` (racemic) [Example 6, (±)-N-hydroxy-2-(4-(4-chlorophenoxy)-phenyl-2-oxo-azaphosphorin-4-ene-1-acetamide], the figures for the IC50 on MMP-2, against MMP-9 and against MMP-1 were 3.98 nM, 0.794 nM and 5010 nM, respectively.
